Experimental data from PubChem BioAssay AID2305 (GlaxoSmithKline (GSK), 2010).

What follows are molecules tested on P. falciparum 3D7 growth, pLDH absorbance (assay: blood-stage malaria parasite growth potency – strain 3D7, dose response (AID 2305)).

In order of rising IC50:
1. CCCc1cn2c3c(cc(C(=O)N[C@@H](Cc4ccccc4)[C@H](O)CNC4CCOCC4)cc13)N(C)S(=O)(=O)CC2  50 nM
2. CC1(C)N=C(N)N=C(N)N1OCCSCCON1C(N)=NC(N)=NC1(C)C  50 nM
3. Fc1ccc(CNc2ncc(-c3ccsc3)c(-c3nccs3)n2)cc1  70 nM
4. CC(C)N(CCOc1ccc2c(c1)N(C(=O)Nc1cc(Br)cc(C(F)(F)F)c1)CC2)C(C)C  110 nM
5. CCCCCCCc1cc(O)c2c3c(c(=O)oc2c1)CN(C)CC3  140 nM
6. O=C(Nc1cccc(-c2cccc(-c3nc4ccc(F)cc4[nH]3)c2)c1)Nc1ccc2c(c1)OCO2  140 nM
7. CCOc1c(C)cc(C(F)(F)F)cc1CNCCCNc1cc(=O)c2ccccc2[nH]1  160 nM
8. Cc1ccc(O)cc1Nc1ccnc2cc(-c3ccc(CN4CCCCC4)o3)ccc12  170 nM
9. Cc1ccc(C)c(CC(=O)N2CCC(n3c(C)nc4ccc(F)cc43)CC2)c1  190 nM
10. COc1ccc2ncc(F)c([C@H](O)CN3CCC(NCc4ccc5c(c4)NC(=O)CS5)CC3)c2c1  190 nM
11. COCCn1ccc2c3c(N)nc(N)nc3ccc21  210 nM
12. COc1ccc2nccc(NN=Cc3ccc(Cl)cc3)c2c1  210 nM
13. Nc1ncc(-c2ccc(F)cc2)c2ccc(-c3cccc(F)c3)cc12  230 nM
14. Cc1nnsc1C(=O)Nc1cccc(-c2cccc(-c3nc4ccc(C(F)(F)F)cc4[nH]3)c2)c1  240 nM
15. COc1ccc2nccc([C@@H](O)CN3CCC(NC(=O)c4cc5c(F)cc(F)cc5[nH]4)CC3)c2c1  240 nM
16. CC1CCC2(CC1)N=C(N)N=C(N)N2OCc1cc2ccccc2c2ccccc12 (stereo unspecified)  240 nM
17. O=C(NCCN1CCC(c2ncc(-c3ccccc3)o2)CC1)c1ccc(NC(=O)c2ccc(Cl)cc2)cc1  240 nM
18. CN(C)Cc1ccc(-c2ccc3c(Nc4ccc(Cl)cc4F)ccnc3c2)o1  240 nM
19. CC(=O)Nc1nc(-c2ccccc2)[nH]c1C(N)=O  250 nM
20. CCc1cc2c(O)c([N+](=O)[O-])c(=O)oc2cc1OCCCCCOc1cc2oc(=O)c([N+](=O)[O-])c(O)c2cc1CC  260 nM
21. CCC(C)C#Cc1c(C)nc(N)nc1N (stereo unspecified)  260 nM
22. CC(=O)CCc1ccc(OCCN(Cc2ccccc2C(F)(F)F)c2ccc(C#N)c(C(F)(F)F)c2)cc1  270 nM
23. Cc1cnc(C(=O)Nc2cccc(-c3csc(-c4nc5ccccc5[nH]4)c3)c2)cn1  270 nM
24. COc1ccc(C(=O)[C@H]2C[C@@H]2CN2CC=C(c3c(C)[nH]c4ccccc34)CC2)cc1  300 nM
25. COc1ccccc1C1CC(c2ccccc2)=NN1C(=O)c1ccccc1 (stereo unspecified)  300 nM
26. COc1ccc2nc(C)cc(NN=Cc3ccccc3F)c2c1  370 nM
27. COC(=O)Nc1cc(C(F)(F)F)ccc1N1CCCC(NS(=O)(=O)c2ccc(C(C)(C)C)cc2)C1 (stereo unspecified)  380 nM
28. CCCCCCCNCCNc1cc(C)nc2ccccc12  390 nM
29. CNCCNCc1ccc(-c2ccc(-c3nc4ccc(F)cc4[nH]3)cc2)cc1  390 nM
30. CCCCOc1cc2c(cc1OCC)C(C=Cc1ccc(Cl)cc1Cl)=NCC2  400 nM
31. Oc1cccc(Nc2nc(NCc3ccco3)c3ccccc3n2)c1  410 nM
32. CCOc1cc(C(=O)NC2CCN(Cc3ccccc3)CC2)ccc1-c1nc2ccc(Cl)cc2[nH]1  430 nM
33. COc1ccc(CCN(C)CCCOc2ccc(NC(=O)COc3cccc4sc5ccccc5c(=O)c34)cc2)cc1OC  460 nM
34. COc1cc(C(=O)NCCCN2CCN(c3cccc(Cl)c3)CC2)ccc1-c1cc2cc(Cl)c(Cl)cc2[nH]1  470 nM
35. COc1ccc(-c2ccc(NC(=O)c3cccc(Cl)c3)cc2)cc1CNC(C)C  470 nM
36. O=C(Nc1ccc(OC2CCN(Cc3ccc(F)cc3)C2)c(Cl)c1)c1ccc(F)cc1 (stereo unspecified)  490 nM
37. c1ccc2c(Nc3ccc(Oc4ccc(Nc5c6ccccc6nc6ccccc56)cc4)cc3)c3ccccc3nc2c1  520 nM
38. Cc1cccc2[nH]c(-c3cccc(-c4ccc(NC(=O)CN5CCN(C)CC5)cc4)c3)nc12  560 nM
39. CCOC(=O)N(C)/N=C/[C@H](CCc1ccccc1)NC(=O)[C@H](CC(C)C)NC(=O)c1cc2cccc(OC)c2o1  560 nM
40. Nc1ncc(-c2ccsc2)c2ccc(-c3cnc[nH]3)cc12  570 nM
41. N#Cc1ccc(NC(=O)c2ccc(C(=O)NCCCCN3CCC(c4ccc5c(c4OCCOC4CCCCO4)CCCC5)CC3)cc2)cc1 (stereo unspecified)  580 nM
42. Cc1ccc2nc3ccccc3c(NCCN3CCN(C)CC3)c2c1  590 nM
43. Cc1cc(N[C@@H](Cc2ccccc2)C(=O)NCCOc2ccccc2)nc(NCCc2ccc(F)cc2)n1  600 nM
44. O=C(N[C@H]1CCN(Cc2ccc(OCCCN3CCCCC3)cc2)C1)c1cc(Cl)cc(Cl)c1  620 nM
45. NC1CCCN(Cc2cccc(-c3cccc(-c4nc5ccccc5[nH]4)c3)c2)C1 (stereo unspecified)  640 nM
46. CC[C@H]1CN2CCc3cc(OC)c(OC)cc3[C@@H]2C[C@@H]1C[C@H]1NCCc2c1cc(OC)c(OC)c2Br  650 nM
47. COc1ccc(CCN(C)CCOc2ccc(NC(=O)c3cccc4cc5ccccc5nc34)cc2)cc1OC  680 nM
48. COc1ccc(Nc2ccnc3cc4ccccc4cc23)cc1  680 nM
49. Nc1cccc(CNCc2cccc(-c3csc(-c4nc5ccccc5[nH]4)c3)c2)c1  680 nM
50. O=C(NC(=O)c1ccccc1O)c1ccccc1O  700 nM
51. COc1ccc(NC(=O)Nc2nc3ccccc3s2)cc1N1CCN(C)CC1  700 nM
52. CN(C)C(=O)CC(=O)NCc1cccc(Cl)c1  710 nM
53. CC(CN(C)C)C(=O)Nc1ccc(-c2cccc(-c3nc4ccccc4[nH]3)c2)cc1 (stereo unspecified)  720 nM
54. CC(CNC(=O)c1cc2c(Cl)cc(Cl)cc2[nH]1)CNc1cc(=O)c2ccccc2[nH]1 (stereo unspecified)  720 nM
55. COc1ccc2c(NN=Cc3ccccc3[N+](=O)[O-])cc(C)nc2c1  720 nM
56. Cc1ccc(NC(=O)c2ccc(CN3CCCN(Cc4cccc(O)c4)CC3)cc2)cc1  740 nM
57. CCCCCC(C)C(C)c1cc(O)c2c(c1)OC(C)(C)CC2(O)c1ccccn1 (stereo unspecified)  740 nM
58. Cc1cc(=O)c(-c2cccc(Oc3ccc(Cl)cc3)c2)c(C)[nH]1  740 nM
59. CC(Cc1ccc(NS(=O)(=O)c2ccc(CC(C)NCCc3cccc(Cl)c3)cc2)cc1)NCCc1cccc(Cl)c1 (stereo unspecified)  780 nM
60. Cc1nc2nc(N)nc(N)c2c(C)c1Cc1cccs1  780 nM
61. O=C(OCc1ccccn1)c1nc2ccccc2[nH]1  790 nM
62. Cc1cc(NN=Cc2ccc(Cl)cc2)c2ccccc2n1  790 nM
63. O=c1c(Br)ccccc1Br  790 nM
64. O=C(/C=C/c1ccc(Cl)c(Cl)c1)NCCCCCN1CCC(NC(=O)Nc2cc(F)cc(F)c2)CC1  790 nM
65. CC(OC(=O)c1ccc(C(=O)NCC2CC2)cc1)C(C)(C)C (stereo unspecified)  790 nM
66. CCN(CCNC(=O)Nc1cc(C(F)(F)F)cc(C(F)(F)F)c1)c1cccc(C)c1  800 nM
67. CC(C)CC(C)NC(=O)C1Cc2c([nH]c3cc(Cl)ccc23)C2(CCN(CCc3ccccc3)CC2)N1 (stereo unspecified)  810 nM
68. N#Cc1cccc(CN2CCCN(c3ccc(NC(=O)c4cccs4)cc3)CC2)c1  810 nM
69. COc1ccc(NC(=O)c2ccc(Br)c(C)c2)cc1N1CCN(CCCCc2ccccc2)CC1  820 nM
70. CC(C)(C)c1ccc(S(=O)(=O)Nc2cc(Cl)ccc2Cn2ccc(N3CCNCC3)nc2=O)cc1  830 nM
71. CN1C(=O)[C@H](NC(=O)[C@@H](Cc2ccccc2)NC(=S)Nc2ccccc2)N=C(c2ccccc2)c2ccccc21  860 nM
72. CC1(CCCCN2CCC(Cc3ccccc3)CC2)C(=O)Nc2ccccc21 (stereo unspecified)  860 nM
73. CCCNCc1ccc(-c2ccc(CN(CCOC)C(=O)c3ccc([N+](=O)[O-])c(C)c3)cc2)nc1  870 nM
74. c1ccc(CN2CCC(NCc3ccc(-c4cncc5ccccc45)cc3)CC2)cc1  880 nM
75. CC1CCc2sc(-c3nnc(SC(C)C(=O)N4CCCC4)o3)cc2C1 (stereo unspecified)  880 nM
76. O=C(/C=C/c1ccc(Cl)c(Cl)c1)NC1CCN(Cc2cccc(O)c2)CC1  880 nM
77. COc1ccc(CCNc2ccnc3cc(Cl)ccc23)cc1OC  890 nM
78. COc1ccc(CCN(C)CCCOc2ccc(NC(=O)c3cccc4c(=O)c5ccccc5[nH]c34)cc2)cc1OC  910 nM
79. Cc1csc(NC(=O)c2cn(-c3ccccc3)nc2-c2cccs2)n1  910 nM
80. CN(CCCCNC(=O)c1cc2ccccc2[nH]1)C1CC2(CCN(C(=O)OC(C)(C)C)CC2)c2ccccc21 (stereo unspecified)  930 nM
81. [O-]c1n[n+](C2CCCCC2)no1  930 nM
82. CN(C)CCC1CCCc2ccc(NC(=O)Nc3cccc(Cl)c3Cl)cc21 (stereo unspecified)  960 nM
83. O=C(Nc1cccc(Cl)c1N1CCOCC1)C(Cl)(Cl)Cl  980 nM
84. Cn1cc(Br)c(-c2cccc(Nc3ccnc4cc(-c5nccs5)ccc34)c2)n1  980 nM
85. O=C(Nc1cccc(CN2CCCN(Cc3cccc(Cl)c3)CC2)c1)c1ccc(Cl)c(Cl)c1  990 nM
86. NC(=O)c1ccc(NCC(=O)Nc2cccc(-c3cccc(-c4nc5ccccc5[nH]4)c3)c2)cc1  990 nM
87. Cc1nnc(-c2ccc3ccccc3c2)c2cn(-c3cccc([N+](=O)[O-])c3)nc12  990 nM
88. COc1c(C2CCN(CCCCNC(=O)c3ccc(-c4ccc(Cl)cc4)c(OCC(N)=O)c3)CC2)ccc2c1CCCC2  1010 nM
89. FC(F)(F)c1cccc(CNCCCCCNCc2ccc(Cl)cc2)c1  1030 nM
90. CC(C)N1CCC(N(Cc2ccc(-c3ccc(C(F)(F)F)cc3)cc2)C(=O)Cn2c(SCc3cccc(F)c3F)nc(=O)c3ccccc32)CC1  1050 nM
91. CCN(CC)CCN(Cc1ccc(-c2ccc(C(F)(F)F)cc2)cc1)C(=O)Cn1c(CCc2ccc(F)cc2)nc(=O)c2ccccc21  1070 nM
92. COc1ccc(Nc2nc(NN=Cc3ccc(O)cc3)nc(Nc3ccc([N+](=O)[O-])cc3)n2)cc1  1120 nM
93. CN(C)CCN(C)Cc1ccc(-c2ccc(NC(=O)c3cccc(Cl)c3)cc2)cc1  1140 nM
94. COc1ccc(S(=O)(=O)Nc2ccc(C(=O)NCc3ccccc3C(F)(F)F)cc2)cc1N1CCN(CC2CC2)CC1  1150 nM
95. O=C(Nc1ccc(Cl)cc1)Nc1ccc(OCC(O)CN2CCCCC2)cc1 (stereo unspecified)  1160 nM
96. Cc1cc(N2CCC(C)CC2)nc2cc(O)ccc12  1180 nM
97. C(=NNc1cc(-c2ccccc2)nc2ccccc12)c1cccnc1  1230 nM
98. CCCN1CCC(NCc2cn(C)nc2-c2ccc(Oc3ccccc3)cc2)CC1  1440 nM
99. CCn1c(-c2nonc2N)nc2c(-c3cccc(NC(=O)Nc4ccc(C#N)cc4)c3)ncc(OCCCN)c21  1510 nM
100. Cc1nc2ccccn2c1C1(O)C(=O)Nc2c(Cl)cc(Cl)cc21 (stereo unspecified)  1590 nM
101. Cc1ccc(-n2cc(CNCC3CCN(CCO)CC3)c(-c3ccc(F)cc3)n2)cc1  2000 nM
